Measured values reported in article PMC3070735, “Uremic Toxins Inhibit Transport by Breast Cancer Resistance Protein and Multidrug Resistance Protein 4 at Clinically Relevant Concentrations” (PLoS ONE, 2011).
Structures can show the parent of a compound that is named as a salt. Where two headings read alike, the source gives them in different places. Marks after values point to notes of the source that are not given here.

Tests used:
MRP4 = biological target: T1, MRP4 (Homo sapiens, UniProt O15439); test: Membrane vesicle transport inhibition assay: MRP4-mediated [3H]-MTX uptake; conditions: for Effect on transport mediated by MRP4 / Decrease of MRP4-mediated transport compared to control: [3H]-MTX uptake; for Effect on transport mediated by MRP4: result in words; for Decrease of MRP4-mediated transport compared to control: toxin 1 mM; for Mode of inhibition of MRP4-mediated transport: Dixon plot, three [3H]-MTX concentrations; for IC20 at 10 min: human
T1 sequence (O15439 1-1325): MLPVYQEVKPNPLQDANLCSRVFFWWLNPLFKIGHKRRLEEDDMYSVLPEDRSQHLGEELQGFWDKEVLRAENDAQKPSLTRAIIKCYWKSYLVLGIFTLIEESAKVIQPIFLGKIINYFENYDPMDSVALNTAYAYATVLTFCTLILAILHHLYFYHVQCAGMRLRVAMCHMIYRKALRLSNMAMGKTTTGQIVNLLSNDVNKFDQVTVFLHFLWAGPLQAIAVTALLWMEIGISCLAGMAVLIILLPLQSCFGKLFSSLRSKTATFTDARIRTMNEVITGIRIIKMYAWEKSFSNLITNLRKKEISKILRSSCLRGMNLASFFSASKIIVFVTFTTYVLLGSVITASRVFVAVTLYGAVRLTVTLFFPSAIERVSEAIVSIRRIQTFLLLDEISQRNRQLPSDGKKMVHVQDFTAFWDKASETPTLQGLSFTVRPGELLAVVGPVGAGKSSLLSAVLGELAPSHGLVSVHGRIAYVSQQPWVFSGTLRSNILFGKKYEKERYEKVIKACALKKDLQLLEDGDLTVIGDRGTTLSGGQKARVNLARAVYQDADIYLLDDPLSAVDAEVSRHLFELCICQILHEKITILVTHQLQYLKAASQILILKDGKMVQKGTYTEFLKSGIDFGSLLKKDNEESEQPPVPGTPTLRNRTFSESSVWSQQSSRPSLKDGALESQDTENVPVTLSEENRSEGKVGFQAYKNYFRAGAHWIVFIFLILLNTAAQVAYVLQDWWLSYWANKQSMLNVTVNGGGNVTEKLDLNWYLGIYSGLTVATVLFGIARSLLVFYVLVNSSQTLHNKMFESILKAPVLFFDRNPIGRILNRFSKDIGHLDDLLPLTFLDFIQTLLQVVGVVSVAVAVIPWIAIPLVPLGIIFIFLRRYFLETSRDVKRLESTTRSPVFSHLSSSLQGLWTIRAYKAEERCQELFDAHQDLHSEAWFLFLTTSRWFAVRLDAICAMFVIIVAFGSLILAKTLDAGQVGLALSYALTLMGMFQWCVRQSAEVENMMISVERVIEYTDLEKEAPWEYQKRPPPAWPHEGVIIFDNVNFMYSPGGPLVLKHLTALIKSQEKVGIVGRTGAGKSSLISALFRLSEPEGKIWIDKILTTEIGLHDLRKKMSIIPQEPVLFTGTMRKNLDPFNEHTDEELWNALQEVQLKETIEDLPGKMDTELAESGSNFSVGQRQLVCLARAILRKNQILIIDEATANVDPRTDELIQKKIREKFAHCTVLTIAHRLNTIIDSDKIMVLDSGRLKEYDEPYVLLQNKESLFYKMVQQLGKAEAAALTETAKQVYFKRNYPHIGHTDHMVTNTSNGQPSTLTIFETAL
Experimental: Human embryonic kidney (HEK293; purchased at American Type Culture Collection, Manassas, VA) cells were cultured in Dulbecco's modified Eagle's medium (Invitrogen life sciences, Breda, the Netherlands) containing 10% (v/v) fetal calf serum (MP Biomedicals, Uden, the Netherlands) at 37°C in a 5% (v/v) CO2 atmosphere. To functionally overexpress MRP4 and BCRP, HEK293 cells were transduced with baculoviruses of human MRP4, BCRP or enhanced yellow fluorescent protein (EYFP), generated via the Bac-to-Bac system (Invitrogen) as previously described. To transduce HEK293 cells, they were cultured in 500 cm^2 flasks until 70% confluence. Subsequently, medium was removed and 10 ml of virus and 25 ml of medium were added and incubated for 30 min at 37°C. Next, 50 ml of medium was added and after 2 h of transduction 5 mM sodium butyrate was added.
Three days after transduction, cells were harvested and pelleted by centrifugation (30 min at 4,000 x g). Afterwards, the cells were resuspended in ice-cold hypotonic TS buffer (0.5 mM sodium phosphate, 0.1 mM EDTA, pH 7.0) containing protease inhibitors (100 µM phenylmethylsulfonyl fluoride, 5 µg/ml aprotinin, 5 µg/ml leupeptin, 1 µg/ml pepstatin and 1 µg/ml E-64) and shaken for 30 min at 4°C. Cells were then centrifuged at 100,000 x g for 30 min at 4°C. […] Afterwards, supernatant was centrifuged at 100,000 x g for 1 h at 4°C. […] The protein content of samples was determined using the Bio-Rad protein assay (Veenendaal, the Netherlands), according to manufacturers recommendations. Vesicles were frozen in liquid nitrogen and stored at −80°C until use. The orientation of the membrane vesicles was not determined, since ATP-dependent uptake occurs only in inside-out vesicles.
A rapid filtration technique was used to study the uptake of [^3H]-MTX and [^3H]-E1S into MRP4 or BCRP membrane vesicles, as previously described. In short, 25 µl of TS buffer containing 4 mM ATP, 10 mM MgCl2 and radiolabeled substrate was added to 5 µl of the membrane vesicles (1.5 mg/ml). The transport assay was performed in the absence or presence of various concentrations of uremic toxins to evaluate the inhibitory effects of these compounds on MRP4-mediated [^3H]-MTX uptake and BCRP-mediated [^3H]-E1S uptake. […] Uptake was stopped by placing the samples on ice and the addition of 150 µl ice cold TS buffer. Subsequently, the samples were transferred to a 96 well filter plate (Millipore, Etten-leur, the Netherlands) pre-incubated with TS buffer and filtered using a Multiscreen HTS-Vacuum Manifold filtration device (Millipore). Afterwards, 2 ml of scintillation liquid was added to each filter and radioactivity was determined using liquid scintillation counting. As negative controls ATP was substituted for AMP and EYFP-membrane vesicles were used. Each experiment was performed in triplicates.
Differences between groups were considered to be statistically significant when p<0.05. The mean IC50 and IC20 values were calculated from the inhibition curves used for the Dixon analysis and to determine the inhibition constant (Ki) from the Dixon plots. Transport inhibition studies were performed in triplicate and repeated at least three times.

[1] = plasma of CKD patients, cited from earlier work
[2] = IC50, [3H]-MTX uptake into MRP4 membrane vesicles, 10 min, 37°C, mean ± SEM of three experiments
[3] = membrane vesicles from HEK293 cells overexpressing MRP4, pH 7, probe [3H]-methotrexate ([3H]-MTX)
[4] = IC50 (concentration inhibiting 50% of transport by MRP4), MRP4-mediated [3H]-MTX uptake

SMILES | Effect on transport mediated by MRP4 (MRP4) | Decrease of MRP4-mediated transport compared to control (MRP4) | Ki (MRP4) | Mode of inhibition of MRP4-mediated transport (MRP4) | IC50 (MRP4; [2]) | IC20 at 10 min (MRP4; [3]) | other results
Cc1ccc(S(=O)(=O)O)cc1 [p-toluenesulfonic acid, reference compound] | did not alter transport | ≤ 10% |  |  |  |  | 
O=C(O)Cc1c[nH]c2ccccc12 [indole-3-acetic acid] |  |  | 2000 ± 70 µM | non-competitive | 1795 ± 8 µM | 570 ± 30 µM | 
O=S(=O)(O)Oc1c[nH]c2ccccc12 [indoxyl sulfate] |  |  | 1000 ± 90 µM | non-competitive |  | 530 ± 70 µM | IC50 (MRP4): 1750 ± 110 µM; Cu, highest mean/median uremic concentration ([1]; ref www.uremic-toxins.org [19]): 211 µM
O=C(O)C(=O)O [oxalate] | did not alter transport | ≤ 10% |  |  |  |  | 
O=C(O)CNC(=O)c1ccccc1 [hippuric acid] |  |  | 2500 ± 50 µM | non-competitive | 990 ± 180 µM | 350 ± 20 µM | IC50 (MRP4; [4]): 2500 µM; Cu, highest mean/median uremic concentration ([1]; ref www.uremic-toxins.org [19]): 1380 µM; Cu, highest median uremic concentration ([1]; ref www.uremic-toxins.org [19]): 1.4 mM; Cmax ([1]; ref www.uremic-toxins.org [19], read-out: Cmax, maximal uremic concentration): 2600 µM
Cc1ccc(O)cc1 [p-cresol] | did not alter transport | ≤ 10% |  |  |  |  | 
O=C(O)Cc1ccccc1 [phenylacetic acid] |  |  |  |  | 7100 ± 1600 µM |  | IC50 (MRP4; [4]): 7000 µM; IC20 at 10 min (MRP4; pH 7): 1600 ± 170 µM; Cu, highest median plasma concentration [1]: 3.5 mM; Cu, highest mean/median uremic concentration ([1]; obtained from literature): 3490 ^a µM
NCCCCN [putrescine] | did not alter transport | ≤ 10% |  |  |  |  | 
O=C(O)c1cc(=O)c2ccccc2[nH]1 [kynurenic acid] |  |  | 25 ± 2 µM |  |  | 1.5 ± 0.3 µM | IC50 (MRP4): 8 ± 1 µM
O=C(O)c1cccnc1C(=O)O [quinolinic acid] | did not alter transport | ≤ 10% |  |  |  |  | 
